The values below come from US9284333B2, “Fused pyrroledicarboxamides and their use as pharmaceuticals” (SANOFI, priority 2012, dated 2016).

The target in this experiment is Human TASK-1 channels (Homo sapiens (Human), UniProt O14649). The experiment is described as follows: Determination of the activity on the TASK-1 channel in Xenopus oocytes (two-microelectrode voltage clamp). Particulars: for IC50: human TASK-1 expressed in Xenopus oocytes, room temperature, read-out: IC50 value for TASK-1 inhibition; for inhibition at 5 µM: compound concentration 5 μM. The format is cell-based. Put shortly:
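Xenopus oocytes were injected with human TASK-1 cRNA and recorded two days later by two-microelectrode voltage clamp, holding at −90 mV with 500 ms steps to 40 mV. Superfusion used ND96, pH 7.4, at room temperature, with rising compound concentrations; percentage inhibition of control current was fitted to a dose-response curve for IC50.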

Structures are written as SMILES.

Human TASK-1 channels, sequence (O14649 whole entry, the tested form may be a part): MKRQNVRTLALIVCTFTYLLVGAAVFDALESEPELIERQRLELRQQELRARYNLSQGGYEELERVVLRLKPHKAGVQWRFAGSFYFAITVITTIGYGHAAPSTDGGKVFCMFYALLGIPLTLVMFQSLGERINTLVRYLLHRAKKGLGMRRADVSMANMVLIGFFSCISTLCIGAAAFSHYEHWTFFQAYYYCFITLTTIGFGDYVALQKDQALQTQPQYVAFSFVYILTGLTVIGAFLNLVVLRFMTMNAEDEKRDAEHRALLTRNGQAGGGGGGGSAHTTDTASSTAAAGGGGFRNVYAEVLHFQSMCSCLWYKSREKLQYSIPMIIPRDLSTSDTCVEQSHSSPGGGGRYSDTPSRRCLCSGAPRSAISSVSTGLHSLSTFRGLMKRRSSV

As a reminder, the IC50 is the point on the concentration scale where inhibition reaches its midpoint. Take `O=C(N[C@H](c1ccc(F)cc1)C1CC1)c1cc(C(=O)N2CCCC2)n2c1COCC2` [16dh, 6-(Pyrrolidine-1-carbonyl)-3,4-dihydro-1H-pyrrolo[2,1-c][1,4]oxazine-8-carboxylic acid [(S)-cyclopropyl-(4-fluoro-phenyl)-methyl]-amide]: the IC50 was found to be 290 nM.

With `O=C(NC(c1ccccc1)c1ccccc1)c1cc(C(=O)N2CCCC2)n2c1COCC2` [16di, 6-(Pyrrolidine-1-carbonyl)-3,4-dihydro-1H-pyrrolo[2,1-c][1,4]oxazine-8-carboxylic acid benzhydryl-amide], the half-inhibitory concentration (IC50) is 1200 nM.

For the compound `O=C(NC(CC(F)(F)F)c1ccccc1)c1cc(C(=O)N2CCCC2)n2c1COCC2` (stereo not shown) [16dj, 6-(Pyrrolidine-1-carbonyl)-3,4-dihydro-1H-pyrrolo[2,1-c][1,4]oxazine-8-carboxylic acid (3,3,3-trifluoro-1-phenyl-propyl)-amide], the IC50 came out at 1900 nM.

As for `C[C@@H](NC(=O)c1cc(C(=O)N2CCC[C@@H]2C(F)(F)F)c2n1CCOC2)c1ccc(F)cc1` [16dk, 8-((R)-2-Trifluoromethyl-pyrrolidine-1-carbonyl)-3,4-dihydro-1H-pyrrolo[2,1-c][1,4]oxazine-6-carboxylic acid [(R)-1-(4-fluoro-phenyl)-ethyl]-amide], the IC50 is 160 nM.

In the case of `CCOC(=O)C[C@H]1CCCN1C(=O)c1cc(C(=O)N[C@H](C)c2ccc(F)cc2)n2c1COCC2` [16dl, ((R)-1-{6-[(R)-1-(4-Fluoro-phenyl)-ethylcarbamoyl]-3,4-dihydro-1H-pyrrolo[2,1-c][1,4]oxazine-8-carbonyl}-pyrrolidin-2-yl)-acetic acid ethyl ester], the IC50 amounted to 62 nM.

In the case of `C[C@@H](NC(=O)c1cc(C(=O)N[C@H](C)c2ccc(F)cc2)n2c1COCC2)c1ccc(F)cc1` [16dm, 3,4-Dihydro-1H-pyrrolo[2,1-c][1,4]oxazine-6,8-dicarboxylic acid bis-{[(R)-1-(4-fluoro-phenyl)-ethyl]-amide}], the IC50 stood at 125 nM.

Consider `C[C@@H](NC(=O)c1cc(C(=O)N[C@H](C)c2ccc(F)cc2)n2c1COCC2)c1ccccc1` [16dn, 3,4-Dihydro-1H-pyrrolo[2,1-c][1,4]oxazine-6,8-dicarboxylic acid 6-{[(R)-1-(4-fluoro-phenyl)-ethyl]-amide} 8-[((R)-1-phenyl-ethyl)-amide]], for which the IC50 is 50 nM.

For `C[C@@H](NC(=O)c1cc(C(=O)N[C@H](C)c2ccc(F)cc2)n2c1COCC2)c1cccc(F)c1` [16do, 3,4-Dihydro-1H-pyrrolo[2,1-c][1,4]oxazine-6,8-dicarboxylic acid 6-{[(R)-1-(4-fluoro-phenyl)-ethyl]-amide} 8-{[(R)-1-(3-fluoro-phenyl)-ethyl]-amide}], the IC50 is 190 nM.

Take `C[C@@H](NC(=O)c1cc(C(=O)N[C@H](C)c2ccccc2F)c2n1CCOC2)c1ccc(F)cc1` [16dq, 3,4-Dihydro-1H-pyrrolo[2,1-c][1,4]oxazine-6,8-dicarboxylic acid 6-{[(R)-1-(4-fluoro-phenyl)-ethyl]-amide} 8-{[(R)-1-(2-fluoro-phenyl)-ethyl]-amide}]: the IC50 amounted to 220 nM.

What is called inhibition is the drop in the measured response relative to a control, in per cent. In turn, `C[C@@H](NC(=O)c1cc(C(=O)NCC(F)(F)F)c2n1CCOC2)c1ccc(F)cc1` [16dr, 3,4-Dihydro-1H-pyrrolo[2,1-c][1,4]oxazine-6,8-dicarboxylic acid 6-{[(R)-1-(4-fluoro-phenyl)-ethyl]-amide} 8-[(2,2,2-trifluoro-ethyl)-amide]] came in with an inhibition at 5 µM of 84%.

`C[C@@H](NC(=O)c1cc(C(=O)NCC2CC2)c2n1CCOC2)c1ccc(F)cc1` [16ds, 3,4-Dihydro-1H-pyrrolo[2,1-c][1,4]oxazine-6,8-dicarboxylic acid 8-cyclopropylmethyl-amide 6-{[(R)-1-(4-fluoro-phenyl)-ethyl]-amide}]: the inhibition at 5 µM worked out at 89%.

Turning to `CC[C@@H](NC(=O)c1cc(C(=O)N[C@H](C)c2ccc(F)cc2)n2c1COCC2)c1cccnc1C(F)(F)F` [16dt, 3,4-Dihydro-1H-pyrrolo[2,1-c][1,4]oxazine-6,8-dicarboxylic acid 6-{[(R)-1-(4-fluoro-phenyl)-ethyl]-amide} 8-{[(R)-1-(2-trifluoromethyl-pyridin-3-yl)-propyl]-amide}], the IC50 was 1000 nM.

`CC[C@@H](NC(=O)c1cc(C(=O)N[C@H](C)c2ccc(F)cc2)n2c1COCC2)c1ccc(OC)nc1` [16du]: the IC50 was 220 nM.

For `CC[C@@H](NC(=O)c1cc(C(=O)N[C@H](C)c2ccc(F)cc2)n2c1COCC2)c1cnc(OC)cn1` [16dw, 3,4-Dihydro-1H-pyrrolo[2,1-c][1,4]oxazine-6,8-dicarboxylic acid 6-{[(R)-1-(4-fluoro-phenyl)-ethyl]-amide} 8-{[(R)-1-(5-methoxy-pyrazin-2-yl)-propyl]-amide}], the IC50 was found to be 48 nM.

With `CC[C@@H](NC(=O)c1cc(C(=O)N[C@H](C)c2ccc(F)cc2)n2c1COCC2)c1ncccn1` [16dz, 3,4-Dihydro-1H-pyrrolo[2,1-c][1,4]oxazine-6,8-dicarboxylic acid 6-{[(R)-1-(4-fluoro-phenyl)-ethyl]-amide} 8-[((R)-1-pyrimidin-2-yl-propyl)-amide]], the IC50 was 220 nM.

Consider `CC(c1ncccn1)N(CC1CC1)C(=O)c1cc(C(=O)N[C@H](C)c2ccc(F)cc2)n2c1COCC2` (stereo partly drawn) [16ea, 3,4-Dihydro-1H-pyrrolo[2,1-c][1,4]oxazine-6,8-dicarboxylic acid 8-[cyclopropylmethyl-(1-pyrimidin-2-yl-ethyl)-amide] 6-{[(R)-1-(4-fluoro-phenyl)-ethyl]-amide}], for which the inhibition at 5 µM was determined as 72%.

As for `CC[C@@H](NC(=O)c1cc(C(=O)N[C@H](C)c2ccc(F)cc2)n2c1COCC2)c1ccc(C(F)(F)F)cc1` [16eb, 3,4-Dihydro-1H-pyrrolo[2,1-c][1,4]oxazine-6,8-dicarboxylic acid 6-{[(R)-1-(4-fluoro-phenyl)-ethyl]-amide} 8-{[(R)-1-(4-trifluoromethyl-phenyl)-propyl]-amide}], the IC50 was 250 nM.

For `CC[C@@H](NC(=O)c1cc(C(=O)N[C@H](C)c2ccc(F)cc2)n2c1COCC2)c1ccc(C#N)cc1` [16ec, 3,4-Dihydro-1H-pyrrolo[2,1][1,4]oxazine-6,8-dicarboxylic acid 8-{[(R)-1-(4-cyano-phenyl)-propyl]-amide} 6-{[(R)-1-(4-fluoro-phenyl)-ethyl]-amide}], the IC50 is 600 nM.

Turning to `CC[C@@H](NC(=O)c1cc(C(=O)N[C@H](C)c2ccc(F)cc2)n2c1COCC2)c1ncc(C(F)(F)F)cn1` [16ed, 3,4-Dihydro-1H-pyrrolo[2,1-c][1,4]oxazine-6,8-dicarboxylic acid 6-{[(R)-1-(4-fluoro-phenyl)-ethyl]-amide} 8-{[(R)-1-(5-trifluoromethyl-pyrimidin-2-yl)-propyl]-amide}], the IC50 was 300 nM.

As to `CC[C@H](NC(=O)c1cc(C(=O)N[C@H](C)c2ccc(F)cc2)n2c1COCC2)c1ncc(C(F)(F)F)cn1` [16ee, 3,4-Dihydro-1H-pyrrolo[2,1-c][1,4]oxazine-6,8-dicarboxylic acid 6-{[(R)-1-(4-fluoro-phenyl)-ethyl]-amide} 8-{[(S)-1-(5-trifluoromethyl-pyrimidin-2-yl)-propyl]-amide}], the IC50 was 350 nM.

On to `CC[C@@H](NC(=O)c1cc(C(=O)N[C@@H](C)c2ccc(F)cc2)n2c1COCC2)c1ncccn1` [16ef, 3,4-Dihydro-1H-pyrrolo[2,1-c][1,4]oxazine-6,8-dicarboxylic acid 6-{[(S)-1-(4-fluoro-phenyl)-ethyl]-amide} 8-[((R)-1-pyrimidin-2-yl-propyl)-amide]], for which the IC50 came to 820 nM.

As for `CC[C@@H](NC(=O)c1cc(C(=O)N[C@H](C)c2ccc(F)cc2)n2c1COCC2)c1ccc(C(F)(F)F)cn1` [16eg, 3,4-Dihydro-1H-pyrrolo[2,1-c][1,4]oxazine-6,8-dicarboxylic acid 6-{[(R)-1-(4-fluoro-phenyl)-ethyl]-amide} 8-{[(R)-1-(5-trifluoromethyl-pyridin-2-yl)-propyl]-amide}], the IC50 is 54 nM.

As to `CC[C@@H](NC(=O)c1cc(C(=O)N2CCOCC2)n2c1COCC2)c1ccccc1` [16eh, 6-(Morpholine-4-carbonyl)-3,4-dihydro-1H-pyrrolo[2,1-c][1,4]oxazine-8-carboxylic acid ((R)-1-phenyl-propyl)-amide], the IC50 was determined as 1700 nM.

With `CC[C@@H](NC(=O)c1cc(C(=O)N2CCC[C@H]2C)n2c1COCC2)c1ccccc1` [16ej, 6-((R)-2-Methyl-pyrrolidine-1-carbonyl)-3,4-dihydro-1H-pyrrolo[2,1-c][1,4]oxazine-8-carboxylic acid ((R)-1-phenyl-propyl)-amide], the half-inhibitory concentration (IC50) is 260 nM.

In the case of `CC[C@@H](NC(=O)c1cc(C(=O)N2CC[C@H](OC)C2)n2c1COCC2)c1ccccc1` [16ek, 6-((S)-3-Methoxy-pyrrolidine-1-carbonyl)-3,4-dihydro-1H-pyrrolo[2,1-c][1,4]oxazine-8-carboxylic acid ((R)-1-phenyl-propyl)-amide], the IC50 turned out to be 560 nM.

On to `CC[C@@H](NC(=O)c1cc(C(=O)N2CCCC2C(C)C)n2c1COCC2)c1ccccc1` (stereo partly drawn) [16el, 6-(2-Isopropyl-pyrrolidine-1-carbonyl)-3,4-dihydro-1H-pyrrolo[2,1-c][1,4]oxazine-8-carboxylic acid ((R)-1-phenyl-propyl)-amide], for which the IC50 is 380 nM.

In the case of `CC[C@@H](NC(=O)c1cc(C(=O)N2CCN(C)CC2c2ccccc2)n2c1COCC2)c1ccccc1` (stereo partly drawn) [16em, 6-(4-Methyl-2-phenyl-piperazine-1-carbonyl)-3,4-dihydro-1H-pyrrolo[2,1-c][1,4]oxazine-8-carboxylic acid ((R)-1-phenyl-propyl)-amide], the IC50 turned out to be 600 nM.

On to `CC[C@@H](NC(=O)c1cc(C(=O)N2CCCC2COC(F)(F)F)n2c1COCC2)c1ccccc1` (stereo partly drawn) [16en, 6-(2-Trifluoromethoxymethyl-pyrrolidine-1-carbonyl)-3,4-dihydro-1H-pyrrolo[2,1-c][1,4]oxazine-8-carboxylic acid ((R)-1-phenyl-propyl)-amide], for which the IC50 came to 180 nM.
